Structures can show the parent of a compound that is named as a salt. Bounds are passed on as bounds.

The test system of this test is peripheral blood mononuclear cells (PBMCs) from healthy donors. The test can be described thus: IFN production by R848-activated PBMCs, quantified with twINNE luciferase reporter cell line. Type of test: cell-based, human. The conditions noted are these: Homo sapiens, PBMC; read-out: IC50 of anti-inflammatory activity (IFN production by activated PBMCs). The procedure, abridged:
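Healthy-donor PBMCs (4.10^6/mL, RPMI/10% FBS) were pre-treated with compound, then stimulated with R848 at 5 μg/mL for 24 h. Supernatants were put on twINNE cells, which carry luciferase under five ISREs, for 24 h, and Bright-Glo luminescence was read. IC50 values came from variable-slope dose-response fits.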
As for `Fc1cccc2c1CN=C(SCC1=CSC3=Nc4ccc(Cl)cc4CN13)N2` [Example 80, 7-chloro-3-(((5-fluoro-1,4-dihydroquinazolin-2-yl)thio)methyl)-5H-thiazolo[2,3-b]quinazoline dihydrochloride], the IC50 was at most 10 µM. The figure for `c1ccc(C2CCCN2CCSC2=NCc3ccccc3N2)cc1` (stereo not shown) [Example 128, 2-((2-(2-phenylpyrrolidin-1-yl)ethyl)thio)-1,4-dihydroquinazoline dihydrochloride] is at most 10 µM. As to `C1=C(CSC2=NCc3ccccc3N2)N2Cc3ccccc3CN=C2S1` [Example 11, 3-(((3,4-dihydroquinazolin-2-yl)thio)methyl)-5,10-dihydrobenzo[e]thiazolo[3,2-a][1,3]diazepine dihydrochloride], the IC50 is at most 10 µM. The figure for `CN1CCCC1CCSC1=NCc2cc(Cl)ccc2N1` (stereo not shown) [Example 158, 6-chloro-2-((2-(1-methylpyrrolidin-2-yl)ethyl)thio)-1,4-dihydroquinazoline dihydrochloride] is at most 10 µM. The figure for `COC1CCN(CCSC2=NCc3ccccc3N2)C1` (stereo not shown) [Example 127, 2-((2-(3-methoxypyrrolidin-1-yl)ethyl)thio)-1,4-dihydroquinazoline dihydrochloride] is at most 10 µM; for `c1ccc(CC2CN=C(SCCN3CCCCC3)N2)cc1` (stereo not shown) [Example 50, 1-(2-((5-benzyl-4,5-dihydro-1H-imidazol-2-yl)thio)ethyl)piperidine dihydrochloride] it is over 32 µM. In the case of `Fc1cccc(CC2CN3C(CSC4=NCc5ccccc5N4)=CSC3=N2)c1` (stereo not shown) [Example 121, 3-(((1,4-dihydroquinazolin-2-yl)thio)methyl)-6-(3-fluorobenzyl)-5,6-dihydroimidazo[2,1-b]thiazole dihydrochloride] it was at most 10 µM.

Take `C1=C(CSC2=NCc3ccccc3N2)N2C(=Nc3ccccc3C2c2ccccc2)S1` (stereo not shown) [Example 43, 3-(((3,4-dihydroquinazolin-2-yl)thio)methyl)-5-phenyl-5H-thiazolo[2,3-b]quinazoline dihydrochloride]: the IC50 is at most 10 µM.

For `Fc1ccc2c(c1)N=C1SC=C(CSC3=NCc4ccccc4N3)N1C2` [Example 82, 3-(((1,4-dihydroquinazolin-2-yl)thio)methyl)-8-fluoro-5H-thiazolo[2,3-b]quinazoline dihydrochloride], the IC50 is at most 10 µM. Consider `Fc1cccc2c1CN=C(SCCCCN1CCCC1)N2` [Example 149, 5-fluoro-2-((4-(pyrrolidin-1-yl)butyl)thio)-1,4-dihydroquinazoline dihydrochloride], for which the IC50 was at most 10 µM. The figure for `Clc1ccc2c(c1)NC(SCCCCN1CCCC1)=NC2` [Example 150, 7-chloro-2-((4-(pyrrolidin-1-yl)butyl)thio)-1,4-dihydroquinazoline dihydrochloride] is at most 10 µM; for `C1CCNC(SCCCCN2CCCC2)=NC1` [Example 178, 2-((4-(pyrrolidin-1-yl)butyl)thio)-4,5,6,7-tetrahydro-1H-1,3-diazepine dihydrochloride] it is over 32 µM. The figure for `c1ccc(C2CCN(CCSC3=NCc4ccccc4N3)C2)cc1` (stereo not shown) [Example 140, 2-((2-(3-phenylpyrrolidin-1-yl)ethyl)thio)-1,4-dihydroquinazoline dihydrochloride] is at most 10 µM. As for `Clc1ccc2c(c1)CN1C(CSC3=NCC4CCCCN34)=CSC1=N2` (stereo not shown) [Example 49, 7-chloro-3-(((1,5,6,7,8,8a-hexahydroimidazo[1,5-a]pyridin-3-yl)thio)methyl)-5H-thiazolo[2,3-b]quinazoline dihydrochloride], the half-inhibitory concentration (IC50) is at most 10 µM. The figure for `CC1(C)N=C(SCC2=CSC3=NCc4ccccc4CN23)Nc2ccccc21` [Example 21, 3-(((4,4-dimethyl-1,4-dihydroquinazolin-2-yl)thio)methyl)-5,10-dihydrobenzo[e]thiazolo[3,2-a][1,3]diazepine dihydrochloride] is at most 10 µM. The figure for `C1=C(CSC2=NCC(Cc3ccccc3)N2)N2Cc3ccccc3N=C2S1` (stereo not shown) [Example 33, 3-(((5-benzyl-4,5-dihydro-1H-imidazol-2-yl)thio)methyl)-5H-thiazolo[2,3-b]quinazoline dihydrochloride] is at most 10 µM. In the case of `c1ccc2c(c1)CN=C(SCCN1C[C@@H]3C[C@H]1CO3)N2` (stereo in doubt) [Example 139, (1S,4S)-5-(2-((1,4-dihydroquinazolin-2-yl)thio)ethyl)-2-oxa-5-azabicyclo[2.2.1]heptane dihydrochloride] it was 10 to 32 µM; in that of `F[C@H]1CCN(CCSC2=NCc3ccccc3N2)C1` [Example 156, (S)-2-((2-(3-fluoropyrrolidin-1-yl)ethyl)thio)-1,4-dihydroquinazoline dihydrochloride], 10 to 32 µM. For `Clc1ccc2c(c1)CN1C(CSC3=NCC4(CC4)N3)=CSC1=N2` [Example 68, 3-(((4,6-diazaspiro[2.4]hept-5-en-5-yl)thio)methyl)-7-chloro-5H-thiazolo[2,3-b]quinazoline dihydrochloride], the IC50 is at most 10 µM.

As to `CC1(C)CN=C(SCCCCN2CCCC2)N1` [Example 172, 4,4-dimethyl-2-((4-(pyrrolidin-1-yl)butyl)thio)-4,5-dihydro-1H-imidazole dihydrochloride], the IC50 is over 32 µM. On to `CCCCC1CN=C(SCC2=CSC3=Nc4ccc(Cl)cc4CN23)N1` (stereo not shown) [Example 41, 3-(((5-butyl-4,5-dihydro-1H-imidazol-2-yl)thio)methyl)-7-chloro-5H-thiazolo[2,3-b]quinazoline dihydrochloride], for which the IC50 was at most 10 µM. The figure for `OC1(CSC2=NCc3ccccc3N2)CSC2=N[C@H](c3ccccc3)[C@@H](c3ccccc3)N21` (relative stereo) [Example 17, trans-3-(((3,4-dihydroquinazolin-2-yl)thio)methyl)-5,6-diphenyl-2,3,5,6-tetrahydroimidazo[2,1-b]thiazol-3-ol dihydrochloride] is over 32 µM. In the case of `Clc1cccc2c1CN1C(CSC3=NCc4ccccc4N3)=CSC1=N2` [Example 81, 6-chloro-3-(((1,4-dihydroquinazolin-2-yl)thio)methyl)-5H-thiazolo[2,3-b]quinazoline dihydrochloride] it was at most 10 µM; in that of `c1ccc(CC2CN=C(SCc3ccncc3)N2)cc1` (stereo not shown) [Example 56, 4-(((5-benzyl-4,5-dihydro-1H-imidazol-2-yl)thio)methyl)pyridine dihydrochloride], 10 to 32 µM; in that of `CC1(C)N=C(SCCCCN2CCCC2)Nc2ccccc21` [Example 160, 4,4-dimethyl-2-((4-(pyrrolidin-1-yl)butyl)thio)-1,4-dihydroquinazoline dihydrochloride], over 32 µM.

Turning to `O=C(CCCSC1=NCc2ccccc2N1)N1CCCC1` [Example 147, 4-((1,4-dihydroquinazolin-2-yl)thio)-1-(pyrrolidin-1-yl)butan-1-one hydrochloride], the IC50 is over 32 µM. As for `CC1(C)CN=C(SCCCCN2CCCC2)NC1` [Example 179, 5,5-dimethyl-2-((4-(pyrrolidin-1-yl)butyl)thio)-1,4,5,6-tetrahydropyrimidine dihydrochloride], the half-inhibitory concentration (IC50) is over 32 µM. The figure for `Clc1nccc2sc(CSC3=NCC(Cc4ccccc4)N3)cc12` (stereo not shown) [Example 61, 2-(((5-benzyl-4,5-dihydro-1H-imidazol-2-yl)thio)methyl)-4-chlorothieno[3,2-c]pyridine dihydrochloride] is at most 10 µM; for `c1ccc(CC2CN=C(SCCCCN3CCCC3)N2)cc1` (stereo not shown) [Example 181, 5-benzyl-2-((4-(pyrrolidin-1-yl)butyl)thio)-4,5-dihydro-1H-imidazole dihydrochloride] it is over 32 µM. The figure for `C1=C(CSC2=NCc3ccccc3N2)N2C(=N[C@H](c3ccccc3)[C@H]2c2ccccc2)S1` (relative stereo) [Example 16, trans-3-(((3,4-dihydroquinazolin-2-yl)thio)methyl)-5,6-diphenyl-5,6-dihydroimidazo[2,1-b]thiazole dihydrochloride] is at most 10 µM; for `CC1(c2ccccc2)CN=C(SCCCCN2CCCC2)N1` (stereo not shown) [Example 170, 5-methyl-5-phenyl-2-((4-(pyrrolidin-1-yl)butyl)thio)-4,5-dihydro-1H-imidazole dihydrochloride] it is over 32 µM; for `c1ccc2c(c1)CCN=C(SCCCCN1CCCC1)N2` [Example 159, 2-((4-(pyrrolidin-1-yl)butyl)thio)-4,5-dihydro-1H-benzo[d][1,3]diazepine dihydrochloride] it is 10 to 32 µM.

As to `CC1(C)CN=C(SCC2=CSC3=NCc4ccccc4CN23)N1` [Example 8, 3-(((5,5-dimethyl-4,5-dihydro-1H-imidazol-2-yl)thio)methyl)-5,10-dihydrobenzo[e]thiazolo[3,2-a][1,3]diazepine dihydrochloride], the IC50 was at most 10 µM. Regarding `Fc1ccc2c(c1)NC(SCC1=CSC3=NC(Cc4ccccc4)CN13)=NC2` (stereo not shown) [Example 89, 6-benzyl-3-(((7-fluoro-1,4-dihydroquinazolin-2-yl)thio)methyl)-5,6-dihydroimidazo[2,1-b]thiazole dihydrochloride], the IC50 is at most 10 µM.

Consider `Clc1ccc2c(c1)CN=C(SCCCCn1ccnc1)N2` [Example 176, 2-((4-(1H-imidazol-1-yl)butyl)thio)-6-chloro-1,4-dihydroquinazoline dihydrochloride], for which the IC50 lay within 10 to 32 µM. For the compound `c1ccc2c(c1)CCN=C(SCCN1CCCc3ccccc31)N2` [Example 191, 2-((2-(3,4-dihydroquinolin-1(2H)-yl)ethyl)thio)-4,5-dihydro-1H-benzo[d][1,3]diazepine hydrochloride], the IC50 was in the range of 10 to 32 µM. As for `CC1(C)CN=C(SCC2=CSC3=Nc4ccc(Cl)cc4CN23)N1` [Example 2, 7-chloro-3-(((5,5-dimethyl-4,5-dihydro-1H-imidazol-2-yl)thio)methyl)-5H-thiazolo[2,3-b]quinazoline dihydrochloride], the IC50 was 10 to 32 µM.

Values taken from patent US20240018125A1, “CYCLIC ISOTHIOUREA DERIVATIVES AS CXCR4 MODULATORS” (ERMIUM THERAPEUTICS, priority 2020, published 2024).
